Assay results from ChEMBL document CHEMBL3044982, “Cross-resistance, inheritance and biochemical mechanisms of imidacloprid resistance in B-biotype Bemisia tabaci” (2009).
≈ marks a conversion by molar mass, not a printed value.

Legend:
Assay type in all cases: functional
[1] = system: Bemisia tabaci; test: Resistance factor, ratio of LC50 for adult female Bemisia tabaci B-biotype NJ-Imi (sweet potato whitefly) (G30) to LC50 for adult female B-type Bemisia tabaci NJ
[2] = system: Bemisia tabaci; test: Insecticidal activity against adult female imidacloprid-resistant Bemisia tabaci B-biotype NJ-Imi (sweet potato whitefly) (G30) in cotton leaf discs assessed as mortality treated for 10 secs prior to adult infestation measured after 72 hr by leaf-dip bioassay; details: foliar
[3] = system: Bemisia tabaci; test: Insecticidal activity against adult female imidacloprid-susceptible Bemisia tabaci B-biotype NJ (sweet potato whitefly) in cotton leaf discs assessed as mortality treated for 10 secs prior to adult infestation measured after 72 hr by leaf-dip bioassay; details: foliar
[4] = system: Bemisia tabaci; test: Resistance factor, ratio of LC50 for adult female Bemisia tabaci B-biotype NJ-Imi (sweet potato whitefly) (G15) to LC50 for adult female B-type Bemisia tabaci NJ
[5] = system: Bemisia tabaci; test: (§1) Insecticidal activity against adult female imidacloprid-resistant Bemisia tabaci B-biotype NJ-Imi (sweet potato whitefly) (G15) in cotton leaf discs assessed as mortality treated for 10 secs prior to adult infestation measured after 72 hr by leaf-dip bioassay; details: foliar
[6] = system: Bemisia tabaci; test: (§2) Insecticidal activity against female F1 progeny generated from reciprocal cross between female Bemisia tabaci B-biotype NJ-Imi (sweet potato whitefly) with male Bemisia tabaci B-biotype NJ in cotton leaf discs assessed as mortality treated for 10 secs prior to adult infestation measured after 72 hr by leaf-dip bioassay; details: foliar
[7] = system: Bemisia tabaci; test: Insecticidal activity against adult male Bemisia tabaci B-biotype NJ-Imi (sweet potato whitefly) (G30) in cotton leaf discs assessed as mortality treated for 10 secs prior to adult infestation measured after 72 hr by leaf-dip bioassay; details: foliar
[8] = system: Bemisia tabaci; test: as §1, with “female” for “female imidacloprid-resistant”, “bioassay in presence of 100 mg/L cytochrome P450 monoxygenase inhibitor, PBO” for “bioassay”; details: foliar
[9] = system: Bemisia tabaci; test: Insecticidal activity against adult female Bemisia tabaci B-biotype NJ (sweet potato whitefly) in cotton leaf discs assessed as mortality treated for 10 secs prior to adult infestation measured after 72 hr by leaf-dip bioassay in presence of 100 mg/L esterase inhibitor, DEF; details: foliar
[10] = system: Bemisia tabaci; test: Insecticidal activity against adult female Bemisia tabaci B-biotype NJ (sweet potato whitefly) in cotton leaf discs assessed as mortality treated for 10 secs prior to adult infestation measured after 72 hr by leaf-dip bioassay in presence of 100 mg/L GSH depleter, DEM; details: foliar
[11] = system: Bemisia tabaci; test: (§3) Insecticidal activity against adult female Bemisia tabaci B-biotype NJ (sweet potato whitefly) in cotton leaf discs assessed as mortality treated for 10 secs prior to adult infestation measured after 72 hr by leaf-dip bioassay in presence of 100 mg/L cytochrome P450 monoxygenase inhibitor, PBO; details: foliar
[12] = system: Bemisia tabaci; test: Resistance factor, ratio of LC50 for female B-biotype Bemisia tabaci NJ-Imi F1' (sweet potato whitefly) progeny to LC50 for adult female B-type Bemisia tabaci NJ
[13] = system: Bemisia tabaci; test: Resistance factor, ratio of LC50 for adult male Bemisia tabaci B-biotype NJ-Imi (sweet potato whitefly) (G30) to LC50 for adult female B-type Bemisia tabaci NJ
[14] = system: Bemisia tabaci; test: Resistance factor, ratio of LC50 for female Bemisia tabaci B-biotype NJ-Imi F1 (sweet potato whitefly) progeny to LC50 for adult female B-type Bemisia tabaci NJ
[15] = system: Bemisia tabaci; test: as §2, with “female F1'” for “female F1”, “between male B-biotype” for “between female”, “tabaci” for “tabaci B-biotype”, “with female B-biotype” for “with male”; details: foliar
[16] = system: Bemisia tabaci; test: Insecticidal activity against adult female Bemisia tabaci B-biotype NJ-Imi (sweet potato whitefly) (G15) in cotton leaf discs assessed as mortality treated for 10 secs prior to adult infestation measured after 72 hr by leaf-dip bioassay in presence of 100 mg/L GSH depleter, DEM; details: foliar
[17] = system: Bemisia tabaci; test: Synergistic ratio of LC50 for adult female Bemisia tabaci B-biotype NJ-Imi (sweet potato whitefly) (G15) to LC50 for adult female Bemisia tabaci B-biotype NJ in presence of 100 mg/L cytochrome P450 monoxygenase inhibitor, PBO
[18] = system: Bemisia tabaci; test: Synergistic ratio of LC50 for adult female Bemisia tabaci B-biotype NJ (sweet potato whitefly) to LC50 for adult female Bemisia tabaci B-biotype NJ in presence of 100 mg/L esterase inhibitor, DEF
[19] = system: Bemisia tabaci; test: Synergistic ratio of LC50 for adult female Bemisia tabaci B-biotype NJ (sweet potato whitefly) to LC50 for adult female Bemisia tabaci B-biotype NJ in presence of 100 mg/L GSH depleter, DEM
[20] = system: Bemisia tabaci; test: Synergistic ratio of LC50 for adult female Bemisia tabaci B-biotype NJ (sweet potato whitefly) to LC50 for adult female Bemisia tabaci B-biotype NJ in presence of 100 mg/L cytochrome P450 monoxygenase inhibitor, PBO
[21] = system: Bemisia tabaci; test: Insecticidal activity against adult female Bemisia tabaci B-biotype NJ-Imi (sweet potato whitefly) (G30) in cotton leaf discs assessed as mortality treated for 10 secs prior to adult infestation measured after 72 hr by leaf-dip bioassay in presence of 100 mg/L esterase inhibitor, DEF; details: foliar
[22] = system: Bemisia tabaci; test: Insecticidal activity against adult female Bemisia tabaci B-biotype NJ-Imi (sweet potato whitefly) (G30) in cotton leaf discs assessed as mortality treated for 10 secs prior to adult infestation measured after 72 hr by leaf-dip bioassay in presence of 100 mg/L GSH depleter, DEM; details: foliar
[23] = system: Bemisia tabaci; test: as §3, with “NJ-Imi” for “NJ”, “whitefly) (G30)” for “whitefly)”; details: foliar
[24] = system: Bemisia tabaci; test: Insecticidal activity against adult female Bemisia tabaci B-biotype NJ-Imi (sweet potato whitefly) (G15) in cotton leaf discs assessed as mortality treated for 10 secs prior to adult infestation measured after 72 hr by leaf-dip bioassay in presence of 100 mg/L esterase inhibitor, DEF; details: foliar
[25] = system: Bemisia tabaci; test: Synergistic ratio of LC50 for adult female Bemisia tabaci B-biotype NJ-Imi (sweet potato whitefly) (G30)to LC50 for adult female Bemisia tabaci B-biotype NJ in presence of 100 mg/L esterase inhibitor, DEF
[26] = system: Bemisia tabaci; test: Synergistic ratio of LC50 for adult female Bemisia tabaci B-biotype NJ-Imi (sweet potato whitefly) (G30) to LC50 for adult female Bemisia tabaci B-biotype NJ in presence of 100 mg/L GSH depleter, DEM
[27] = system: Bemisia tabaci; test: Synergistic ratio of LC50 for adult female Bemisia tabaci B-biotype NJ-Imi (sweet potato whitefly) (G30) to LC50 for adult female Bemisia tabaci B-biotype NJ in presence of 100 mg/L cytochrome P450 monoxygenase inhibitor, PBO
[28] = system: Bemisia tabaci; test: Synergistic ratio of LC50 for adult female Bemisia tabaci B-biotype NJ-Imi (sweet potato whitefly) (G15)to LC50 for adult female Bemisia tabaci B-biotype NJ in presence of 100 mg/L esterase inhibitor, DEF
[29] = system: Bemisia tabaci; test: Synergistic ratio of LC50 for adult female Bemisia tabaci B-biotype NJ-Imi (sweet potato whitefly) (G15) to LC50 for adult female Bemisia tabaci B-biotype NJ in presence of 100 mg/L GSH depleter, DEM

`CC[C@H](C)[C@H]1O[C@]2(C=C[C@@H]1C)C[C@@H]1C[C@@H](C/C=C(\C)[C@@H](O[C@H]3C[C@H](OC)[C@@H](O[C@H]4C[C@H](OC)[C@@H](O)[C@H](C)O4)[C@H](C)O3)[C@@H](C)/C=C/C=C3\CO[C@@H]4[C@H](O)C(C)=C[C@@H](C(=O)O1)[C@]34O)O2.CO[C@H]1C[C@H](O[C@H]2[C@H](C)O[C@@H](O[C@@H]3/C(C)=C/C[C@@H]4C[C@@H](C[C@]5(C=C[C@H](C)[C@@H](C(C)C)O5)O4)OC(=O)[C@@H]4C=C(C)[C@@H](O)[C@H]5OC/C(=C\C=C\[C@@H]3C)[C@]54O)C[C@@H]2OC)O[C@@H](C)[C@@H]1O` [ABAMECTIN] showed a RatioLC50 [1] of 1, an LC50 [2] of 0.92 µg/mL and an LC50 [3] of 0.8 µg/mL.

Work on `C/C(=N\C#N)N(C)Cc1ccc(Cl)nc1` [ACETAMIPRID] yielded a RatioLC50 [1] of 143, a RatioLC50 [4] of 49 and an LC50 [2] of 186 µg/mL (≈ 835 µM). It also gave an LC50 [5] of 63 µg/mL (≈ 283 µM) and an LC50 [3] of 1.3 µg/mL (≈ 5.84 µM).

In the case of `CC1(C)C(C=C(Cl)Cl)C1C(=O)OC(C#N)c1cccc(Oc2ccccc2)c1` (stereo not drawn) [ALPHA-CYPERMETHRIN], the RatioLC50 [1] is reported as 1, the RatioLC50 [4] is reported as 1 and the LC50 [2] is reported as 263 µg/mL (≈ 632 µM). The LC50 [5] was 230 µg/mL (≈ 552 µM) and the LC50 [3] was 226 µg/mL (≈ 543 µM).

`CN(C)C(CSC(N)=O)CSC(N)=O` [CARTAP] showed a RatioLC50 [1] of 11, an LC50 [2] of 17.4 µg/mL (≈ 73.3 µM) and an LC50 [3] of 1.55 µg/mL (≈ 6.53 µM).

For `O=[N+]([O-])/N=C1\NCCN1Cc1ccc(Cl)nc1` [IMIDACLOPRID], the LC50 [6] was 30.9 µg/mL (≈ 121 µM), the LC50 [7] was 411 µg/mL (≈ 1610 µM) and the RatioLC50 [1] was 490. It also gave a RatioLC50 [4] of 257, an LC50 [2] of 485 µg/mL (≈ 1900 µM) and an LC50 [5] of 254 µg/mL (≈ 993 µM). For the same molecule, the LC50 [8] was 102 µg/mL, the LC50 [9] was 0.4 µg/mL and the LC50 [10] was 1.22 µg/mL. For the same molecule, the LC50 [11] was 0.91 µg/mL, the RatioLC50 [12] was 29 and the RatioLC50 [13] was 415. For the same molecule, the RatioLC50 [14] was 31, the LC50 [15] was 28.6 µg/mL (≈ 112 µM) and the LC50 [3] was 0.99 µg/mL (≈ 3.87 µM). It also gave an LC50 [16] of 273 µg/mL, a RatioLC50 [17] of 2.5 and a RatioLC50 [18] of 2.5. It also gave a RatioLC50 [19] of 0.8, a RatioLC50 [20] of 1.1 and an LC50 [21] of 371 µg/mL. It also gave an LC50 [22] of 357 µg/mL, an LC50 [23] of 231 µg/mL and an LC50 [24] of 94 µg/mL. The RatioLC50 [25] was 1.3, the RatioLC50 [26] was 1.4 and the RatioLC50 [27] was 2.1. The RatioLC50 [28] was 2.7 and the RatioLC50 [29] was 0.9.

With `CN(C)C(CSS(=O)(=O)[O-])CSS(=O)(=O)O.[Na+]` [MONOSULTAP] the RatioLC50 [1] was 7, the RatioLC50 [4] was 7 and the LC50 [2] was 294 µg/mL. It also gave an LC50 [5] of 297 µg/mL and an LC50 [3] of 43.9 µg/mL.

Work on `CCN(Cc1ccc(Cl)nc1)/C(=C/[N+](=O)[O-])NC` [NITENPYRAM] yielded a RatioLC50 [1] of 94, an LC50 [2] of 93 µg/mL (≈ 344 µM) and an LC50 [3] of 0.99 µg/mL (≈ 3.66 µM).

`N#C/N=C1\SCCN1Cc1ccc(Cl)nc1` [THIACLOPRID] was tested, and the RatioLC50 [1] was 37, the LC50 [2] was 37.3 µg/mL (≈ 148 µM) and the LC50 [3] was 1.02 µg/mL (≈ 4.04 µM).

Molecule `CN1COCN(Cc2cnc(Cl)s2)/C1=N\[N+](=O)[O-]` [THIAMETHOXAM] has a RatioLC50 [1] of 243, a RatioLC50 [4] of 92 and an LC50 [2] of 289 µg/mL (≈ 991 µM). It also gave an LC50 [5] of 110 µg/mL (≈ 377 µM) and an LC50 [3] of 1.19 µg/mL (≈ 4.08 µM).
